Measured values: patent US20090076029A1 (Palatin Technologies, Inc., priority 2007, published 2009)
“And” between values parts separate entries of the source, which are not always exact repeats. Identical values can stand only once. Like-named read-outs stand apart in the source and are kept apart here.

Assays:
hMC5-R = biological target: T1, hMC5-R; assay: Competitive inhibition assay using [I125]-NDP-α-MSH, hMC5-R membranes; format: binding, human; settings: read-out: Ki (nM) (NDP-α-MSH) MC5-R
T1 construct: expressed in transfected cells; host or cells: HEK-293
Summary of the method: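 Single-concentration displacement (usually 1 μM compound) of 0.2–0.4 nM [125I]-NDP-α-MSH, run 90 min at room temperature in pH 7.2 HEPES containing MgCl2, CaCl2 and KCl. Receptor sources: transfected HEK-293 membranes for human MC3-R/MC4-R/MC5-R, B-16 mouse melanoma membranes for MC1-R. Bound counts normalised to 1 μM α-MSH-defined specific binding; triplicates averaged, values below 0% set to 0%.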

hMC4-R [1] = system: T2, hMC4-R; assay: cAMP functional assay in HEK-293 cells expressing MC4-R (agonist, neutral antagonist/Schild); format: cell-based, human; settings: for intrinsic activity at MC4-R: NDP-α-MSH maximal stimulation = 1.0; for pA2 value at MC4-R: Schild plot vs NDP-α-MSH; for functional status at MC4-R: mostly at 1 μM
T2 construct: expressed in transfected cells; host or cells: HEK-293
Summary of the method: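 Cells in EBSS/HEPES pH 7.5 with 0.3 mM IBMX, exposed to compound (0.05-5000 nM, 1% DMSO) for 1 h at 37 °C; cAMP by EIA, EC50 by nonlinear regression. Antagonism: 30 min compound pre-incubation, then 1 nM NDP-α-MSH for 1 h; Schild analysis over 0.005-5000 nM agonist gives pA2.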

hMC4-R [2] = system: T2, hMC4-R; format: binding, human; settings: for Inhibition at 1 μM (AgRP) MC4-R: 1 μM compound
Summary of the method: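 Membranes from hMC4-R-expressing cells incubated 1 h at 37 °C with 0.2 nM [I^125]-AgRP (83-132) and increasing compound in 25 mM HEPES pH 7.5, 100 mM NaCl, 2 mM CaCl2, 2 mM MgCl2, 0.3 mM 1,10-phenanthroline, 0.5% BSA. Filtration, gamma counting; specific binding kept ≤10% of added counts.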

hMC4-R [3] = biological target: T2, hMC4-R; assay: Competitive inhibition assay using [I125]-NDP-α-MSH, hMC4-R membranes; format: binding, human
[4] = MC4-R membranes, Table 1, read-out: Ki (nM) I125-AgRP
[5] = MC4-R membranes, Table 1, read-out: Ki (nM) I125-NPD-α-MSH
[6] = read-out: Ki (nM) (NDP-α-MSH) MC4-R

CC(C)C[C@@H]1CN(C(=O)[C@H](N)Cc2ccc(Cl)cc2Cl)[C@@H](CCCNC(=N)N)CN1CCc1ccc2ccccc2c1 [Example 4, N-{3-[1-[2(R)-Amino-3-(2,4-dichloro-phenyl)-propionyl]-5(R)-isobutyl-4-(2-naphthalen-2-yl-ethyl)-piperazin-2(S)-yl]-propyl}-guanidine]
Ki (hMC5-R): 160 nM
functional status (pAg, Ag, Antag, Inactive) (hMC4-R [1]; MC4-R, Table 1): Antag (“Antag” means antagonist)
intrinsic activity at MC4-R (hMC4-R [1]): no intrinsic activity
pA2 value at MC4-R (hMC4-R [1]): 7.7
functional status at MC4-R (hMC4-R [1]; cAMP assay): antagonist
Inhibition at 1 μM (AgRP) MC4-R (hMC4-R [2]): 100%
Ki (hMC4-R [2]; [4]): 6 nM
Ki (hMC4-R [2]; read-out: Ki (nM) (AgRP) MC4-R): 6 nM
Ki (hMC4-R [3]; [5]): 5 nM
Ki (hMC4-R [3]; [6]): 5 nM

CC(=O)N[C@H](Cc1ccc(C)cc1C)C(=O)N1C[C@@H](C)N(CCc2ccc3ccccc3c2)C[C@@H]1CCCNC(=N)N [Example 26, N-{1(R)-(2,4-Dimethyl-benzyl)-2-[2(S)-(3-guanidino-propyl)-5(R)-methyl-4-(2-naphthalen-2-yl-ethyl)-piperazin-1-yl]-2-oxo-ethyl}-acetamide]
Ki (hMC5-R): 43 nM
functional status (pAg, Ag, Antag, Inactive) (hMC4-R [1]; MC4-R, Table 1): Antag (“Antag” means antagonist)
intrinsic activity at MC4-R (hMC4-R [1]): no intrinsic activity
pA2 value at MC4-R (hMC4-R [1]): 8.3
functional status at MC4-R (hMC4-R [1]; cAMP assay): antagonist
Inhibition at 1 μM (AgRP) MC4-R (hMC4-R [2]): 100%
Ki (hMC4-R [2]; [4]): 3 nM
Ki (hMC4-R [2]; read-out: Ki (nM) (AgRP) MC4-R): 0.18 nM
Ki (hMC4-R [3]; [5]): 1 nM
Ki (hMC4-R [3]; [6]): 1 nM

Cc1ccc(C[C@@H](N)C(=O)N2C[C@@H](C)N(CCc3ccc4ccccc4c3)C[C@@H]2CCCNC(=N)N)c(C)c1 [Example 28, N-{3-[1-[2(R)-Amino-3-(2,4-dimethyl-phenyl)-propionyl]-5(R)-methyl-4-(2-naphthalen-2-yl-ethyl)-piperazin-2(S)-yl]-propyl}-guanidine]
Ki (hMC5-R): 665 nM
functional status (pAg, Ag, Antag, Inactive) (hMC4-R [1]; MC4-R, Table 1): pAg (“pAg” means partial agonist)
EC50 (hMC4-R [1]; MC4-R, Table 1, read-out: EC50): 390 nM
intrinsic activity at MC4-R (hMC4-R [1]): 0.16 and 0.2
EC50 (hMC4-R [1]; cAMP assay, read-out: EC50 (nM) at MC4-R): 321 nM
Inhibition at 1 μM (AgRP) MC4-R (hMC4-R [2]): 100%
Ki (hMC4-R [2]; [4]): 3 nM
Ki (hMC4-R [2]; read-out: Ki (nM) (AgRP) MC4-R): 3 nM
attenuation of binding of α-MSH and AgRP to MC4-R (hMC4-R [3]; both ligands (NDP-α-MSH and AgRP), summary): attenuate the binding of both α-MSH and AgRP to MC4-R
